Data set [1] addresses T1, human recombinant COX-2 (Homo sapiens, UniProt P35354).
T1 construct: purchased Cayman Chemical 560131
T1 sequence (P35354 18-604): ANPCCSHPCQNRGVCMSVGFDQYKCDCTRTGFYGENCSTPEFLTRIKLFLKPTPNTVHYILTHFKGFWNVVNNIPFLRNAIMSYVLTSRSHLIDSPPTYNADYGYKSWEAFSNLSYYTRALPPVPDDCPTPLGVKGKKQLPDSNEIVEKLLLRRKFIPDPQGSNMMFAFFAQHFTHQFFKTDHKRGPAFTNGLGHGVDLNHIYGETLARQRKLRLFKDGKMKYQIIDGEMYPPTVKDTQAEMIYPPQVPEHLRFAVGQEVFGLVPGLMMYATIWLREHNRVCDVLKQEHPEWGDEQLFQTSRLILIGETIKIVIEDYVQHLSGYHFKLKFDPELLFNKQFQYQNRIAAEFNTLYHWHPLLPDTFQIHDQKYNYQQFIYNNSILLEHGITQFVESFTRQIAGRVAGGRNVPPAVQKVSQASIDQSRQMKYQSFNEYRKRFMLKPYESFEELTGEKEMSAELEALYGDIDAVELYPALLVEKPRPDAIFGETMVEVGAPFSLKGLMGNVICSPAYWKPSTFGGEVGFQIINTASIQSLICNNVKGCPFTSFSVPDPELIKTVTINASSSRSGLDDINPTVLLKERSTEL
Briefly: In vitro COX-2 inhibition, enzyme immunoassay kit (Cayman item no. 560131). The class given is biochemical. An excerpt:
(§1) The in vitro COX-1/COX-2 isozyme inhibition studies measure the ability of tested compounds to inhibit bovine COX-1 and human recombinant COX-2 using an enzyme immunoassay (COX inhibitor screening assay kit, item no. 560131) according to the manufacturer’s instructions. […].

For data set [2], the target named is T2, bovine COX-1 (Ovis aries, UniProt P05979).
T2 construct: purchased Cayman Chemical 560131
T2 sequence (P05979 25-600): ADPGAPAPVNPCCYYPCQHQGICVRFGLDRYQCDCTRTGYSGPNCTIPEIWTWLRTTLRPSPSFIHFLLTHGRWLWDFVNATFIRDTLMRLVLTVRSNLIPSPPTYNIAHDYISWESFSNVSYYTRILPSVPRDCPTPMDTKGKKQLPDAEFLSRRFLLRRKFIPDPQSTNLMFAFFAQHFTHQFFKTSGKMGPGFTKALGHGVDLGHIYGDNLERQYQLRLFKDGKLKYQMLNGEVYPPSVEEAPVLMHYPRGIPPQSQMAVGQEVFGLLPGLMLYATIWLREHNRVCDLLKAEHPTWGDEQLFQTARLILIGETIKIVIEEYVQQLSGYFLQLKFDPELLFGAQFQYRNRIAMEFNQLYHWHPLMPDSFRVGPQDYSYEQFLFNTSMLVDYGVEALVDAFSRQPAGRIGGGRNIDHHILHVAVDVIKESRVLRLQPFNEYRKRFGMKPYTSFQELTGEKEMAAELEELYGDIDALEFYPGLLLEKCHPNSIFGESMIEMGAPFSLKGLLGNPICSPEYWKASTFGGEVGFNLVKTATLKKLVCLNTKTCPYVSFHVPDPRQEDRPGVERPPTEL
Put plainly: In vitro COX-1 inhibition, enzyme immunoassay kit (Cayman item no. 560131). The class given is biochemical. The conditions noted are these: mean of two determinations.
Excerpt: as §1

In data set [3] the target is T3, egg albumin (Gallus gallus, UniProt P01012).
T3 sequence (P01012 1-386): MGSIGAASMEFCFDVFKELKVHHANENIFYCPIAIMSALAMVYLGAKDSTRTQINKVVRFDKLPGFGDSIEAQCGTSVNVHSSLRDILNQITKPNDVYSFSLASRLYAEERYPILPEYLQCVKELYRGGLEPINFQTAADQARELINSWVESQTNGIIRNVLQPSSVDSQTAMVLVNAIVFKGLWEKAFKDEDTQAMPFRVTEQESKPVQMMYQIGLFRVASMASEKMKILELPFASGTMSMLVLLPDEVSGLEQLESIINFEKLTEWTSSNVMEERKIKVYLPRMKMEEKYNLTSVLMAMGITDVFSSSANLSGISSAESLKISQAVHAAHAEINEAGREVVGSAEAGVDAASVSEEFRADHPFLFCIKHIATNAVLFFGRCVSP
Briefly: In situ anti-inflammatory assay: inhibition of protein (albumin) denaturation. Conditions: protein denaturation, three replicates. The procedure:
Protein denaturation is used for the evaluation of anti-inflammatory activity. In this methodology, generally, tertiary and secondary protein structures will typically be destroyed by the application of an external molecule or stress. The biological function of most bio-proteins is lost if it is denatured. It is well reported that a basis of inflammation is denaturation of protein.
The reaction mixture is molecules with serial dilutions (1000, 100, 10, 1, 0.1 µM), phosphate buffered saline (PBS; pH 6.4), and egg albumin. The control used was double distilled water (equal volume). […] After attaining ambient temperature, the absorbance of samples was measured spectrophotometrically at 660 nm using vehicle as blank. […] The experiment was performed in triplicate. Percent inhibition of protein denaturation was calculated using the Equation Inhibition (%) of protein denaturation inhibition (%) = (AC − AS)/AC × 100 where AC: absorbance of control, AS: absorbance of sample.

Where [4] appears, read: human recombinant COX-2, mean of two determinations, read-out: IC50 COX-2.
[5] abbreviates: pIC50 = −Log (IC50) of the COX-2 IC50, read-out: Activity (experimental pIC50, COX-2) (converted).

Several values for one entry are separate records, joined by “and”; a condition that tells them apart may be missing. Identical values can stand only once. Like-named read-outs stand apart in the source and are kept apart here.

The term melting point denotes the temperature, or range, at which the solid turns liquid. With `Sc1nnc(COc2ccc3ccccc3c2)n1N=Cc1ccccc1` [Compound 9a, 4-(benzylideneamino)-5-((naphthalen-2-yloxy)methyl)-4H-1,2,4-triazole-3-thiol], the melting point lay within 184 to 186 °C. Besides, the “COX-2 S.I. (selectivity index, COX-1 IC50/COX-2 IC50)” value in data set [1] is 31.5. Moreover, the IC50 in data set [1] (setting [4]) came out at 220 nM. The IC50 in data set [1] (setting [5]) is 220 nM. The IC50 in data set [2] came out at 6930 nM.

`Oc1ccccc1C=Nn1c(S)nnc1COc1ccc2ccccc2c1` [Compound 9b, 2-(((3-mercapto-5-((naphthalen-2-yloxy)methyl)-4H-1,2,4-triazol-4-yl)imino)methyl)phenol] returned a melting point of 208 to 219 °C. Moreover, in data set [1], the “COX-2 S.I. (selectivity index, COX-1 IC50/COX-2 IC50)” value was 40.4. Also, the IC50 in data set [1] (setting [4]) was determined as 190 nM. For the same compound, in data set [1] (setting [5]), the IC50 was 190 nM. This compound also showed an IC50 in data set [2] of 7670 nM.

For `O=[N+]([O-])c1cccc(C=Nn2c(S)nnc2COc2ccc3ccccc3c2)c1` [Compound 9c, 5-((naphthalen-2-yloxy)methyl)-4-((3-nitrobenzylidene)amino)-4H-1,2,4-triazole-3-thiol], the melting point lay within 200 to 202 °C. Moreover, the “COX-2 S.I. (selectivity index, COX-1 IC50/COX-2 IC50)” value in data set [1] was 72.5. The IC50 in data set [1] (setting [4]) came out at 130 nM. In data set [1] (setting [5]), the IC50 is 130 nM. The compound further registered an IC50 in data set [2] of 9430 nM.

Take `O=C(CCl)Sc1nnc(COc2ccc3ccccc3c2)n1N=Cc1ccccc1` [Compound 10a]: the “COX-2 S.I. (selectivity index, COX-1 IC50/COX-2 IC50)” value in data set [1] was 74.8. The IC50 is 130 nM in data set [1] (setting [4]), 130 nM in data set [1] (setting [5]) and 9720 nM in data set [2].

As to `O=C(CCl)Sc1nnc(COc2ccc3ccccc3c2)n1N=Cc1ccccc1O` [Compound 10b], in data set [1], the “COX-2 S.I. (selectivity index, COX-1 IC50/COX-2 IC50)” value stood at 70.6. In addition, the IC50 in data set [1] (setting [4]) is 140 nM; in data set [1] (setting [5]), 140 nM; in data set [2], 9890 nM.

Consider `O=C(CCl)Sc1nnc(COc2ccc3ccccc3c2)n1N=Cc1cccc([N+](=O)[O-])c1` [Compound 10c], for which the “COX-2 S.I. (selectivity index, COX-1 IC50/COX-2 IC50)” value in data set [1] is on record as 84.3. The IC50 is 120 nM in data set [1] (setting [4]), 120 nM in data set [1] (setting [5]) and 10100 nM in data set [2].

On to `COc1ccc(C=Nn2c(COc3ccc4ccccc4c3)nnc2SC(=O)CCl)cc1` [Compound 10d], for which, in data set [1], the “COX-2 S.I. (selectivity index, COX-1 IC50/COX-2 IC50)” value came out at 94.1. Besides, the IC50 in data set [1] (setting [4]) was 110 nM; in data set [1] (setting [5]), 110 nM; in data set [2], 10300 nM.

`Nc1ncc(Sc2nnc(COc3ccc4ccccc4c3)n2N=Cc2ccccc2)o1` [Compound 11a, 5-((4-(benzylideneamino)-5-((naphthalen-2-yloxy)methyl)-4H-1,2,4-triazol-3-yl)thio)oxazol-2-amine] yielded a melting point of 162 to 164 °C. Moreover, the “COX-2 S.I. (selectivity index, COX-1 IC50/COX-2 IC50)” value in data set [1] is 154.6. Also, the IC50 in data set [1] (setting [4]) stood at 80 nM. Also, the IC50 in data set [1] (setting [5]) is 80 nM. Also, in data set [2], the IC50 was 12400 nM.

As for `Nc1ncc(Sc2nnc(COc3ccc4ccccc4c3)n2N=Cc2ccccc2O)o1` [Compound 11b, 2-(((3-((2-aminooxazol-5-yl)thio)-5-((naphthalen-2-yloxy)methyl)-4H-1,2,4-triazol-4-yl)imino)methyl)phenol], the melting point fell in the range of 80 to 81 °C. Further, the “COX-2 S.I. (selectivity index, COX-1 IC50/COX-2 IC50)” value in data set [1] stood at 119.2. The IC50 in data set [1] (setting [4]) stood at 90 nM. For the same compound, the IC50 in data set [1] (setting [5]) was 89.9 nM. Further, in data set [2], the IC50 stood at 10700 nM.

`Nc1ncc(Sc2nnc(COc3ccc4ccccc4c3)n2N=Cc2cccc([N+](=O)[O-])c2)o1` [Compound 11c, 5-((5-((naphthalen-2-yloxy)methyl)-4-((3-nitrobenzylidene)amino)-4H-1,2,4-triazol-3-yl)thio)oxazol-2-amine]: the melting point lay within 196 to 198 °C. Further, the “COX-2 S.I. (selectivity index, COX-1 IC50/COX-2 IC50)” value in data set [1] came to 252.6. Moreover, in data set [1] (setting [4]), the IC50 worked out at 50 nM. For the same compound, the IC50 in data set [1] (setting [5]) is 50 nM and 49 nM. The IC50 in data set [2] was found to be 12600 nM.

In turn, `COc1ccc(C=Nn2c(COc3ccc4ccccc4c3)nnc2Sc2cnc(N)o2)cc1` [Compound 11d, 5-((4-((4-methoxybenzylidene)amino)-5-((naphthalen-2-yloxy)methyl)-4H-1,2,4-triazol-3-yl)thio)oxazol-2-amine] showed a melting point of 70 to 71 °C. The “COX-2 S.I. (selectivity index, COX-1 IC50/COX-2 IC50)” value in data set [1] is given as 192.2. Besides, the IC50 in data set [1] (setting [4]) was 60 nM. Also, the IC50 in data set [1] (setting [5]) was 60.1 nM. The IC50 in data set [2] was 11500 nM.

Take `Nc1ncc(Sc2nnc(COc3ccc4ccccc4c3)n2N=Cc2ccccc2)s1` [Compound 12a, 5-((4-(benzylideneamino)-5-((naphthalen-2-yloxy)methyl)-4H-1,2,4-triazol-3-yl)thio)thiazol-2-amine]: the melting point fell in the range of 145 to 146 °C. The “COX-2 S.I. (selectivity index, COX-1 IC50/COX-2 IC50)” value in data set [1] turned out to be 98.3. Moreover, the IC50 in data set [1] (setting [4]) was 100 nM. Also, in data set [1] (setting [5]), the IC50 is 100 nM. Further, in data set [2], the IC50 was found to be 9830 nM.

Consider `Nc1ncc(Sc2nnc(COc3ccc4ccccc4c3)n2N=Cc2ccccc2O)s1` [Compound 12b, 2-(((3-((2-aminothiazol-5-yl)thio)-5-((naphthalen-2-yloxy)methyl)-4H-1,2,4-triazol-4-yl)imino)methyl)phenol], for which the melting point is 77 to 78 °C. Besides, the “COX-2 S.I. (selectivity index, COX-1 IC50/COX-2 IC50)” value in data set [1] is 202.0 and 202.2. In addition, the IC50 in data set [1] (setting [4]) was determined as 60 nM. Further, the IC50 in data set [1] (setting [5]) is 60.1 nM. For the same compound, the IC50 in data set [2] came out at 12100 nM.

The compound `Nc1ncc(Sc2nnc(COc3ccc4ccccc4c3)n2N=Cc2cccc([N+](=O)[O-])c2)s1` [Compound 12c, 5-((5-((naphthalen-2-yloxy)methyl)-4-((3-nitrobenzylidene)amino)-4H-1,2,4-triazol-3-yl)thio)thiazol-2-amine] displayed a melting point of 182 to 184 °C. For the same compound, the “COX-2 S.I. (selectivity index, COX-1 IC50/COX-2 IC50)” value in data set [1] is 325.0 and 311.8. In addition, in data set [1] (setting [4]), the IC50 was 40 nM. The IC50 in data set [1] (setting [5]) was 40.1 nM. Further, the IC50 in data set [2] amounted to 12500 nM.

As a reminder, the inhibition is how much of the control response was suppressed. Regarding `O=C(O)Cc1ccccc1Nc1c(Cl)cccc1Cl` [Diclofenac sodium, reference compound], in data set [3] (conc. 1000 µM, read-out: % of inhibition ± SEM at conc. 1000), the inhibition at 1000 µM was found to be 94.2%. The “% of inhibition ± SEM at conc. 0.1” value in data set [3] (conc. 0.1 (µM)) is 32.14±1.01%. The “% of inhibition ± SEM at conc. 1” value in data set [3] (conc. 1 (µM)) turned out to be 61.45±1.21%. For the same compound, in data set [3] (conc. 10 (µM)), the “% of inhibition ± SEM at conc. 10” value is given as 67.32±0.95%. The “% of inhibition ± SEM at conc. 100” value in data set [3] (conc. 100 (µM)) turned out to be 82.43±1.87%.
